Literature values, collected in patent US20250064896A1, “METHODS, COMPOSITIONS AND USES FOR TREATING CANCER BY PROVIDING MEDICATIONS THAT INDUCE TARGETED TUMOR CELL MITOSIS BEFORE PROVIDING CHEMOTHERAPY OR RADIATION AND KITS THEREFOR” (MAISON AMORI OQVPO LLC, priority 2022, published 2025).
Like-named read-outs stand apart in the source and are kept apart here.

Tests used:
[1] = test system: metastatic adenocarcinoma of the prostate
[2] = in vivo
[3] = test system: metastatic hormone sensitive prostate cancer (MHSPC); conditions: for median actuarial freedom from Castrate Resistant Prostate Cancer (CRPC): p=0.04; for overall survival: p=0.2
[4] = patients randomized to bicalutamide versus placebo
[5] = test system: prostate cancer (salvage setting); conditions: goserelin provided on the first day of radiation
[6] = test system: locally advanced prostate cancer
[7] = test system: locally advanced prostate cancer; conditions: goserelin 3.6 mg every 4 weeks and flutamide 250 mg tid, 2 months before and concurrent with RT
[8] = test system: locally advanced prostate cancer; conditions: for overall survival at 5 years: P=0.73
testosterone levels [9] = conditions: week 2 from initiation of leuprolide; injections once every 3 months; advanced prostate cancer
testosterone levels [10] = test system: testosterone levels
[11] = test system: serum concentrations of LH and testosterone
[12] = in vivo; remark: listed apart in the source
[13] = arm I: irradiation plus goserelin started in the last week of radiation

SMILES: C[C@]12CC[C@H]3[C@@H](CCC4=CC(=O)CC[C@@]43C)[C@@H]1CC[C@@H]2O [testosterone]
- patients with unfavorable subjective and/or objective responses ([1]; 52 patients treated with exogenous testosterone daily): 87%
- serious morbidity or mortality, seemingly due to the testosterone administration ([1]; eight cases of 52 patients): 15%
- half-life [2]: 170 h

SMILES: CC(=O)O[C@@]12CO[C@@H]1C[C@H](O)[C@@]1(C)C(=O)[C@H](O)C3=C(C)[C@@H](OC(=O)[C@H](O)[C@@H](NC(=O)OC(C)(C)C)c4ccccc4)C[C@@](O)([C@@H](OC(=O)c4ccccc4)[C@H]21)C3(C)C [docetaxel]
- overall survival versus LHRH therapy alone ([3]; docetaxel given at the beginning of LHRH therapy, MHSPC): significantly longer
- median actuarial freedom from Castrate Resistant Prostate Cancer (CRPC) ([3]; docetaxel started 1-6 days from LHRH initiation): 51 months
- overall survival ([3]; docetaxel started 1-6 days from initiation of LHRH agonist): 72 months
- median actuarial freedom from Castrate Resistant Prostate Cancer (CRPC) ([3]; docetaxel started >14 days from LHRH initiation): 18 months
- overall survival ([3]; docetaxel started >14 days from initiation of LHRH agonist): 57 months

SMILES: CC(O)(CS(=O)(=O)c1ccc(F)cc1)C(=O)Nc1ccc(C#N)c(C(F)(F)F)c1 (centres unmarked) [bicalutamide]
- erectile dysfunction compared to placebo [4]: non-statistically significant difference

SMILES: CC(C)C[C@H](NC(=O)[C@@H](COC(C)(C)C)NC(=O)[C@H](Cc1ccc(O)cc1)NC(=O)[C@H](CO)NC(=O)[C@H](Cc1c[nH]c2ccccc12)NC(=O)[C@H](Cc1cnc[nH]1)NC(=O)[C@@H]1CCC(=O)N1)C(=O)N[C@@H](CCCNC(=N)N)C(=O)N1CCC[C@H]1C(=O)NNC(N)=O [goserelin]
- survival, ADT in the salvage setting [5]: survival benefit
- 10-year absolute survival rate (prostate cancer; arm 1 versus control arm 39%, p=0.002): 49%
- 5-year absolute survival rate (prostate cancer; [13]): 72%
- 9-year absolute survival rate (prostate cancer; [13]): 62%
- 10-year overall survival ([6]; combined treatment, radiotherapy alone 39.8%, p=0.0004): 58.1%
- survival, hormonal therapy added to radiation compared to radiation alone ([6]; external irradiation plus goserelin): survival benefit
- five-year overall survival ([6]; irradiation plus goserelin from first day for 3 years, antiandrogen for 1 month, radiotherapy alone 62%, p=0.0002): 78%
- survival, combined ADT with RT versus RT alone [7]: no significant difference
- overall survival at 5 years ([8]; 24 months of goserelin after 4 months of goserelin and flutamide with RT): 80.0%
- overall survival between the two treatment arms ([8]; 24 months of goserelin versus no further treatment): not significantly different
- overall survival at 5 years ([8]; no further treatment after 4 months of goserelin and flutamide with RT): 78.5%

SMILES: CCNC(=O)[C@@H]1CCCN1C(=O)[C@H](CCCNC(=N)N)NC(=O)[C@H](CC(C)C)NC(=O)[C@@H](CC(C)C)NC(=O)[C@H](Cc1ccc(O)cc1)NC(=O)[C@H](CO)NC(=O)[C@H](Cc1c[nH]c2ccccc12)NC(=O)[C@H](Cc1c[nH]cn1)NC(=O)[C@@H]1CCC(=O)N1 [leuprolide]
- testosterone levels higher compared to baseline (testosterone levels [9]): about 50%
- median testosterone levels remained above castrate levels (0.5 ng/ml) until (testosterone levels [10]; after initiation of leuprolide): 21 days
- median testosterone levels increase from baseline (testosterone levels [10]; by day 3 after initiation of monthly leuprolide, P<0.001): 65%
- median testosterone level (testosterone levels [10]; day 3 after initiation of leuprolide): 6.30 ng/mL
- duration of elevation of testosterone levels ([11]; after LHRH analogue application): 7 days
- duration of increase in relative LH values ([11]; after LHRH analogue injection): 7 days
- maximum testosterone level ([11]; day 2 after LHRH analogue application): 145±13%
- maximum relative LH value ([11]; day 2 after LHRH analogue injection, means±standard error, 16 patients with advanced prostatic cancer): 345±108%
- leuprolide blood levels, intranasal versus intravenous route [12]: much lower
